Source: US11773129B2, “Methods of preventing or treating atherosclerosis with inhibitors of specific isoenzymes of human neuraminidase” (THE GOVERNORS OF THE UNIVERSITY OF ALBERTA, priority 2017, dated 2023)
“And” between values parts separate entries of the source, which are not always exact repeats. Equal entries are not always repeated. “Also recorded” adds a separate entry of the source. Where two headings read alike, the source gives them in different places.

Legend:
[1] = biological target: T1, NEU4 (Homo sapiens, UniProt Q8WWR8); assay: IC50 inhibition assay using 4MU-NANA as the substrate, NEU4; format: biochemical; set-up: GST; made in house; host or cells: E. coli; conditions: 4MU-NANA as the substrate; read-out: IC50 NEU4
T1 sequence (Q8WWR8 1-484): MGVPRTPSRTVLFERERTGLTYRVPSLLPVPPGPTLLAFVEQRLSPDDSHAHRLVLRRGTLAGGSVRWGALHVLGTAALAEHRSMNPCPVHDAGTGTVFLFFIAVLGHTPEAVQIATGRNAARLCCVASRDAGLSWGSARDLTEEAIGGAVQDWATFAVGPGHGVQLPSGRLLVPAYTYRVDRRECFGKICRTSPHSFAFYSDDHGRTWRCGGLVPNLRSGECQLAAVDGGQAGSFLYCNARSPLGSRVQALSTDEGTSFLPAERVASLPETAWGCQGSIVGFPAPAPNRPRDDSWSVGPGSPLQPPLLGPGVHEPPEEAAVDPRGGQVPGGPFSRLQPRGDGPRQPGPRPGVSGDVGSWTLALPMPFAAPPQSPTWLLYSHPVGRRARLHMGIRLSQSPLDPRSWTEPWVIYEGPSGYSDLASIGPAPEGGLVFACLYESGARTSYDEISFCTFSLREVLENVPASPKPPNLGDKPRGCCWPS

[2] = biological target: T2, NEU1 (Homo sapiens, UniProt Q99519); assay: IC50 inhibition assay using 4MU-NANA as the substrate, NEU1; format: biochemical
T2 construct: made in house; host or cells: HEK293 (lentiviral transduction), crude lysate
Method: Two weeks after transduction cells were harvested and a crude lysate showing ˜200 nmol/h mg of sialidase activity used in experiments.
Assays were performed with duplicates for each point and IC50 was obtained by plotting the data with Graphpad™ Prism 5.0.

[3] = tested on: atherosclerotic lesions in ApoE KO mice; assay: Atherosclerotic lesion size in aortic root of ApoE KO mice (Red Oil O); conditions: ApoE KO female mice, ip, 4 weeks
[4] = 4 weeks ip treatment
[5] = tested on: NEU1, NEU2, NEU3, NEU4; assay: Isoenzyme specificity/selectivity from 4MU-NANA IC50 across the four human neuraminidases; format: biochemical; conditions: for Target: isoenzyme(s) the compound is specific for, dual (bispecific) when ratio of IC50 is about 3 or less
[6] = biological target: T3, NEU3 (Homo sapiens, UniProt Q9UQ49); assay: IC50 inhibition assay using 4MU-NANA as the substrate, NEU3; format: biochemical; set-up: MBP (N); made in house; host or cells: E. coli
T3 sequence (Q9UQ49 1-428): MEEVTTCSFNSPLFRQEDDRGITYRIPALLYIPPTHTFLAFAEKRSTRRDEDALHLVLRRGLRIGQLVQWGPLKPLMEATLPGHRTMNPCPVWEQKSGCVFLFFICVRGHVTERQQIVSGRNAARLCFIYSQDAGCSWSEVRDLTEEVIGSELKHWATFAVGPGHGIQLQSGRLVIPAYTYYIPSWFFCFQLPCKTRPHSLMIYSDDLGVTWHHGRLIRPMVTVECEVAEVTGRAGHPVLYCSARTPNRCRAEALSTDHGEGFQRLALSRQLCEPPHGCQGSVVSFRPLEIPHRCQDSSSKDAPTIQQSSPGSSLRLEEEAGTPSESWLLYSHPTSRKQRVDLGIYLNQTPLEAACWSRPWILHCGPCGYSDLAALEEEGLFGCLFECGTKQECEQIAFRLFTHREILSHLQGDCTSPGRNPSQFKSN

[7] = tested on: NEU1, NEU2, NEU3, NEU4; assay: Isoenzyme specificity/selectivity from 4MU-NANA IC50 across the four human neuraminidases; format: biochemical; conditions: 4MU-NANA IC50 compared between isoenzymes or with DANA
[8] = biological target: T3, NEU3; assay: Inhibition of GM3 cleavage, NEU3
[9] = biological target: T3, NEU3; assay: Ki determination (4MU-NANA), NEU3
[10] = 4MU-NANA as the substrate, read-out: IC50 NEU1
[11] = 4MU-NANA as the substrate, read-out: IC50 NEU3

| IC50 [1] [µM] | IC50 [2, 10] [µM] | Target [5] | IC50 [6, 11] | Compound | other results |
| --- | --- | --- | --- | --- | --- |
| > 500 | > 500 | – | > 500 µM | CC(=O)N[C@H]1[C@H]([C@H](O)[C@H](O)Cn2cc(-c3ccc(C(=O)O)cc3)nn2)OC(C(=O)O)=C[C@@H]1N [compound 15] | relative potency [7]: decreased potency |
| 5 ± 0.9 | 140 ± 30 | NEU3/ NEU4 | 3.3 ± 0.5 µM | CC(=O)N[C@H]1[C@H]([C@H](O)[C@H](O)Cn2cc(-c3ccc(C(F)(F)F)cc3)nn2)OC(C(=O)O)=C[C@@H]1O [7g] | – |
| 400 ± 70 | > 500 | NEU3 | 20 ± 6 µM | CC(=O)N[C@H]1[C@H]([C@H](O)[C@H](O)Cn2cc(-c3ccc(C(=O)O)cc3)nn2)OC(C(=O)O)=C[C@@H]1N=[N+]=[N-] [compound 13] | Selectivity ([5]; from 4MU-NANA IC50, for the isoenzyme(s) in column Target): 20; relative potency [7]: decreased potency |
| 8.4 ± 0.4 | 8.4 ± 0.5 | NEU1/ NEU4 | 15 ± 2 µM | CCCC(=O)N[C@@H]1C(O)C=C(C(=O)O)OC1C(O)C(O)CO (stereo partly shown) [compound 30, 5-Butyramido-2,6-anhydro-3,5-dideoxy-n-glycero-n-galacto-non-2-enonic acid] | – |
| 1.1 ± 0.2 | > 500 | NEU4 | 15 ± 1 µM | CC(=O)N[C@@H]1C(O)C=C(C(=O)O)OC1C(O)C(O)Cn1cc(CNC(=O)c2ccccc2)nn1 (stereo partly shown) [compound 26] | – |
| 12 ± 1 | 76 ± 16 | NEU3/ NEU4 | 8.7 ± 0.9 µM | CC(=O)N[C@H]1[C@H]([C@H](O)[C@H](O)Cn2cc(-c3ccc(N)cc3)nn2)OC(C(=O)O)=C[C@@H]1O [7c] | – |
| 150 ± 40 | 6.5 ± 0.7 | NEU1 | 35 ± 6 µM | CC(=O)N[C@H]1[C@H]([C@H](O)[C@H](O)CNC(=O)c2cccc(N)c2)OC(C(=O)O)=C[C@@H]1O [compound 61, 5-Acetamido-9-(3-amino)benzamido-2,6-anhydro-3,5-dideoxy-b-glycero-D-galacto-non-2-enonic acid] | – |
| 150 ± 50 | 3.2 ± 0.3 | NEU1 | 54 ± 6 µM | CC(=O)N[C@@H]1C(O)C=C(C(=O)O)OC1C(O)C(O)CNC(=O)CCC(C)C (stereo partly drawn) [compound 55, 5-Acetamido-9-(4-methylpentanamido)-2,6-anhydro-3,5-dideoxy-D-glycero-D-galacto-non-2-enonic acid] | – |
| 24 ± 2 | > 500 | NEU3 | 0.61 ± 0.1 µM | CC(=O)N[C@@H]1C(NC(=N)N)C=C(C(=O)O)OC1C(O)C(O)Cn1cc(-c2ccc(C(=O)O)cc2)nn1 (stereo partly shown) [8a] | – |
| > 500 | > 500 | NEU2 | > 500 µM | CC(=O)Nc1ccc(-c2cn(CC(=O)N[C@@H]3C(O)C=C(C(=O)O)OC3C(O)C(O)CO)nn2)cc1 (stereo partly shown) [compound 48] | – |
| 150 ± 10 | 2.5 ± 0.3 | NEU1 | 34 ± 5 µM | CC(=O)N[C@@H]1C(O)C=C(C(=O)O)OC1C(O)C(O)CNC(=O)c1ccccc1 (stereo partly drawn) [compound 56, 5-Acetamido-9-benzamido-2,6-anhydro-3,5-dideoxy-D-glycero-D-galacto-non-2-enonic acid] | – |
| 3.7 ± 0.4 | 190 ± 70 | NEU3/ NEU4 | 2.9 ± 0.2 µM | CC(=O)N[C@@H]1C(O)C=C(C(=O)O)OC1C(O)C(O)Cn1cc(-c2ccc(NC(=O)c3ccccc3)cc2)nn1 (stereo partly shown) [compound 27] | – |
| 400 ± 160 | > 500 | NEU2 | > 500 µM | O=C(Cn1cc(-c2ccc(C(=O)O)cc2)nn1)N[C@@H]1C(O)C=C(C(=O)O)OC1C(O)C(O)CO (stereo partly shown) [compound 43] | – |
| 46 ± 13 | 240 ± 70 | NEU3/ NEU4 | 31 ± 5 µM | CC(=O)Nc1ccc(C(=O)NCCCCC(=O)NC[C@@H](O)[C@@H](O)[C@@H]2OC(C(=O)O)=C[C@H](O)[C@H]2NC(C)=O)cc1 [compound 62, 5-Acetamido-9-(5-(4-acetamidobenzamido))pentanamido-2,6-anhydro-3,5-dideoxy-d-glycero-d-galacto-non-2-enonic acid] | – |
| 24 ± 6 | 1.9 ± 0.4 | NEU1 | 7.2 ± 1.2 µM | CC(=O)Nc1ccc(C(=O)NC[C@@H](O)[C@@H](O)[C@@H]2OC(C(=O)O)=C[C@H](O)[C@H]2NC(C)=O)cc1 [compound 58, 5-Acetamido-9-(4-acetamido)benzamido-2,6-anhydro-3,5-dideoxy-d-glycero-d-galacto-non-2-enonic acid] | – |

| Compound | IC50 [1] [µM] | IC50 [2, 10] [µM] | Target [5] | IC50 [6, 11] | other results |
| --- | --- | --- | --- | --- | --- |
| CCCCC(=O)N[C@@H]1C(O)C=C(C(=O)O)OC1C(O)C(O)CO (stereo partly shown) [compound 31] | 110 ± 20 | 0.99 ± 0.07 | NEU1 | – | IC50 ([2]; target isoenzyme NEU1, 4MU-NANA substrate, read-out: IC50 [μM] NEU1): 0.99 µM; size of atherosclerotic lesions / fatty streaks in the aortic root [3]: Reduced size of fatty streaks; also recorded: significantly reduced the size of atherosclerotic lesions; changes associated with toxicity (bleeding, leukocyte infiltration, cytoplasmic vacuolisation) [4]: did not see specific changes known to be associated with toxicity; changes in the mice weight or behaviour [4]: did not result in any changes in the mice weight or behaviour |
| CC(=O)N[C@@H]1C(NC(=N)N)C=C(C(=O)O)OC1C(O)C(O)Cn1cc(-c2ccc(-c3ccccc3)cc2)nn1 (stereo partly shown) [8b] | – | > 500 | – | < 1 µM and 0.58 µM | IC50 [8]: 3.8 µM; Ki ([9]; Ki NEU3, 4MU-NANA): 0.28 ± 0.04 µM; Ki ([9]; NEU3 Ki [μM], 4MU-NANA substrate): 0.36 ± 0.04 µM; IC50 ([6]; target isoenzyme NEU3, 4MU-NANA substrate, read-out: IC50 [μM] NEU3): 0.6 µM; size of atherosclerotic lesions / fatty streaks in the aortic root [3]: Reduced size of fatty streaks; also recorded: significantly reduced the size of atherosclerotic lesions; changes associated with toxicity (bleeding, leukocyte infiltration, cytoplasmic vacuolisation) [4]: did not see specific changes known to be associated with toxicity; changes in the mice weight or behaviour [4]: did not result in any changes in the mice weight or behaviour |
| CCCCCC(=O)NC[C@@H](O)[C@@H](O)[C@@H]1OC(C(=O)O)=C[C@H](O)[C@H]1NC(=O)CC [compound 66, 5-Propionamido-9-hexanamido-2,6-anhydro-3,5-dideoxy-D-glycero-D-galacto-non-2-enonic acid] | 210 ± 90 | 1.4 ± 0.2 | NEU1 | 260 ± 70 µM | – |
